According to patent publication US20130217615A1, “COMBINATION TREATMENT OF MAJOR DEPRESSIVE DISORDER” (SHIRE LLC, priority 2010, published 2013):
“Also recorded” adds a separate entry of the source.

How the values were obtained:
[1] = tested on: major depressive disorder (MDD); conditions: augmentation of standard antidepressant treatment; cited from earlier work
[2] = Same study, double-blind augmentation phase: safety (TEAEs, C-SSRS, vital signs, ECG, weight/BMI, laboratory); format: in vivo, human
Source text: Adverse events (AEs) were collected during the study and coded using the Medical Dictionary for Regulatory Activities, Version 11.1. Treatment-emergent AEs (TEAEs) were defined as AEs that started or deteriorated on or after the date of the first dose of study drug during the double-blind treatment phase and no later than 3 days following the last dose of study drug. The incidence of TEAEs of special interest, including psychiatric (psychosis/mania, suicide, aggression, or other) and nonpsychiatric (weight, clinical laboratory [liver enzymes], vital signs, and sexual dysfunction) was also assessed. Vital signs (sitting SBP and DBP, pulse, and sitting respiratory rate), and Columbia-Suicide Severity Rating Scale (C-SSRS; Posner K, Brent D, Lucas C, et al.) a semistructured interview assessing the occurrence, severity, and frequency of suicide-related thoughts and behaviors) were measured at screening and all study visits. Laboratory assessments were conducted at screening, week 8, week 11, and study endpoint; physical examinations were conducted at screening, week 8, and study endpoint.
Safety analyses during double-blind treatment were performed on the randomized safety analysis set (all participants who took dose of randomized augmentation treatment and had safety assessment after treatment initiation). AEs, vital signs, weight and body mass index (BMI), electrocardiograms (ECG) findings, laboratory results, and C-SSRS results were descriptively summarized.

[3] = tested on: major depressive disorder (MDD); assay: Multicenter, randomized, double-blind, placebo-controlled study of LDX (Vyvanse) as augmentation to escitalopram: efficacy (MADRS, HAM-D17, QIDS-SR, CGI); format: in vivo, human; conditions: for HAM-D17 change in total score, LS mean change (90% CI): week 8 to 14
Protocol: In this investigational 14-week, double-blind, randomized, placebo-controlled study (n=246), Vyvanse or placebo was administered orally as an adjunctive therapy to adults between the ages of 18 and 55, who experienced residual depressive symptoms following treatment with 20 mg/day escitalopram/LEXAPRO® (prospective 8-week period). Residual depressive symptoms were defined as 17—Item Hamilton Rating Scale for Depression (HAM-D 17) score at the end of this prospective phase (n=177). In the double blind 6-week period, those with residual depressive symptoms were randomized to receive escitalopram plus either placebo or Vyvanse (dose range of 20 to 50 mg per day) on a 1:1 basis.
The primary study endpoint was the mean change in the total MADRS score in non-remitters after 6 weeks of blinded treatment. Non-remitters were defined as having a total Montgomery-Asberg Depression Rating Scale (MADRS) score>10 at randomization, following 8 weeks of escitalopram treatment (n=129). The key secondary outcome was the Sheehan Disability Scale (SDS). Both the MADRS and SDS are well-validated and widely used assessments in MDD research; the MADRS provides evidence of symptomatic improvement while the SDS reflects the functional impact of the symptomatic improvement. The significance level was prospectively set at 10%.
This was a multicenter, randomized, double-blind, parallel-group, placebo-controlled study in participants with major depressive disorder (MDD) conducted at 15 sites in the United States from July 2009 to August 2010. The study had 4 phases: screening and washout (if necessary), 8 weeks of open-label escitalopram oxalate, 6 weeks of double-blind LDX treatment as augmentation therapy to escitalopram, and a safety follow-up.
Eligible participants were adults (18-55 y) with a primary diagnosis of nonpsychotic MDD according to the Structured Clinical Interview for the Diagnostic and Statistical Manual of Mental Disorders, Fourth Edition—Text Revision™ disorders—Axis I (SCID-I) (American Psychiatric Association (Diagnostic and Statistical Manual of Mental Disorders, Fourth Edition Text Revision, Washington D.C., American Psychiatric Association, 2000). Diagnosis was confirmed using Module A of the Mini-International Psychiatric Interview (MINI). Participants not receiving antidepressants at screening were required to have a baseline Hamilton Rating Scale for Depression-17 items (HAM-D17) score 22; those receiving antidepressants at screening had to have a HAM-D17 score 0 and not to have achieved remission based on investigator opinion following at least 6 weeks of treatment. Women of childbearing age were required to be nonpregnant/nonlactating and on adequate contraception. Permitted concomitant therapies included hormonal therapy, thyroid medication, […], bronchodilator inhalers, nonsedating antihistamines, antibiotics, and over the counter medications not affecting blood pressure (BP), heart rate, or the central nervous system.
After screening/washout, participants underwent 8 weeks of open-label escitalopram monotherapy (10 mg/d at week 1; 20 mg/d thereafter). At week 8 (the augmentation baseline), those with a tolerable safety profile and residual MDD symptoms, defined as a HAM-D17 score were randomized 1:1 to receive LDX or placebo in a 6-week double-blind phase. Participants were stratified by baseline remission status (escitalopram remitters: Montgomery-Asberg Depression Rating Scale [MADRS] total score 10; escitalopram nonremitters: MADRS score >10) to enhance between-treatment balance. Treatment with LDX was initiated at 20 mg/d. The dose was increased weekly, first to 30 mg/d and then to 50 mg/d, during the dose-optimization period. Investigators could increase the dose through week 10 and decrease the dose (only once per participant) at any time; the LDX dose at week 11 was maintained through study endpoint (week 14/final study visit). […]

[4] = Visit 13 (week 14) / study endpoint
[5] = adjunctive therapy with escitalopram
[6] = double-blind augmentation phase, n = 88
[7] = escitalopram nonremitters, study endpoint

Compound: O=C1CCc2ccc(OCCCCN3CCN(c4cccc(Cl)c4Cl)CC3)cc2N1 [aripiprazole]
- effect size for MADRS total scores vs placebo [1]: 0.35

Compound: C[C@@H](Cc1ccccc1)NC(=O)[C@@H](N)CCCCN [LDX, N-[(1S)-1-methyl-2-phenylethyl]-L-lysinamide]
- adverse effects beyond those previously seen ([2]; LDX with escitalopram): No significant adverse effects were seen that went beyond those previously seen with escitalopram and LDX
- increases in blood pressure and pulse rate ([2]; LDX with escitalopram): generally were small and consistent with product labeling
- BMI, mean (SD) change from augmentation baseline ([2]; Visit 13 (week 14)): −0.4 (0.70) kg/m^2
- ECG HR, mean (SD) change from augmentation baseline ([2]; Visit 13 (week 14)): 4.8 (8.64) bpm
- ECG QTcF, mean (SD) change from augmentation baseline ([2]; Visit 13 (week 14)): −4.9 (11.84) ms
- Weight, mean (SD) change from augmentation baseline ([2]; Visit 13 (week 14)): −1.2 (2.00) kg
- DBP, mean (SD) change from augmentation baseline [2, 4]: 0.9 (6.61) mmHg
- Pulse, mean (SD) change from augmentation baseline [2, 4]: 3.3 (8.45) bpm
- SBP, mean (SD) change from augmentation baseline [2, 4]: 2.3 (9.04) mmHg
- ECG and clinical laboratory changes [2, 5]: No clinically significant mean changes
- most commonly reported adverse events [2, 5]: dry mouth, headache, decreased appetite, and insomnia
- ECG and clinical laboratory changes ([2]; adjunctive therapy with escitalopram, listed as VYVANSE): No notable ECG changes or changes in clinical laboratory assessments
- TEAE: Decreased appetite [2, 6]: 6 (6.8) n (%)
- TEAE: Dry mouth [2, 6]: 10 (11.4) n (%)
- TEAE: Headache [2, 6]: 10 (11.4) n (%)
- TEAE: Insomnia [2, 6]: 4 (4.5) n (%)
- TEAE: Nasopharyngitis [2, 6]: 5 (5.7) n (%)
- Any TEAE ([2]; double-blind augmentation phase, randomized safety analysis set (n = 88)): 53 (60.2) n (%)
- abnormal hepatic enzymes (TEAE) ([2]; double-blind treatment): 1.1%
- decreased weight (TEAE) ([2]; double-blind treatment): 2.3%
- nonpsychiatric TEAEs of special interest ([2]; double-blind treatment): 9.1%
- psychiatric TEAE categorized as psychosis/mania, suicidal, or aggression ([2]; double-blind treatment): no participant
- psychiatric TEAE: abnormal dreams ([2]; double-blind treatment): 1.1%
- psychiatric TEAE: anxiety ([2]; double-blind treatment): 3.4%
- psychiatric TEAE: feeling jittery ([2]; double-blind treatment): 2.3%
- psychiatric TEAE: irritability ([2]; double-blind treatment): 3.4%
- psychiatric TEAE: somnolence, number of participants ([2]; double-blind treatment): 0
- psychiatric TEAEs of special interest ([2]; double-blind treatment): 18.2%
- vital-sign related TEAEs ([2]; double-blind treatment): 5.7%
- suicidal behavior ([2]; during augmentation treatment): No participants exhibited suicidal behavior
- patients remaining in BMI category at study endpoint ([2]; normal (18.5 to <25.0) at augmentation baseline): 81.8%
- patients remaining in BMI category at study endpoint ([2]; obese (30) at augmentation baseline): 82.5%
- patients remaining in BMI category at study endpoint ([2]; overweight (25.0 to <30.0) at augmentation baseline): 76.9%
- participants reporting at least 1 TEAE ([2]; randomized augmentation phase): 60.2%
- participants reporting mild TEAEs ([2]; randomized augmentation phase): 18.2%
- participants reporting moderate TEAEs ([2]; randomized augmentation phase): 30.7%
- participants reporting severe TEAEs ([2]; randomized augmentation phase): 11.4%
- study discontinuation due to TEAEs, number of participants ([2]; randomized augmentation phase): 2
- incidence of decreased appetite ([2]; randomized treatment): 6.8%
- incidence of dry mouth ([2]; randomized treatment): 11.4%
- incidence of headache ([2]; randomized treatment): 11.4%
- incidence of insomnia ([2]; randomized treatment): 4.5%
- incidence of nasopharyngitis ([2]; randomized treatment): 5.7%
- C-SSRS affirmative response (wished dead / not wake up), number of participants ([2]; week 9): 1
- C-SSRS affirmative response (wished dead / not wake up), number of participants ([2]; week 10): 2
- C-SSRS affirmative response (wished dead / not wake up), number of participants ([2]; week 14): 1
- improvement compared to placebo on the mean total MADRS ([3]; 'per protocol' analysis of non-remitting subjects, after 6 weeks, adjunctive to escitalopram 20 mg/day): −2.2
- HAM-D17 50% decrease at week 14 ([3]; all randomized participants): 62 (70.5) n (%)
- HAM-D17 total score ≦10 at week 14 ([3]; all randomized participants): 37 (42.0) n (%)
- MADRS 50% decrease at week 14 ([3]; all randomized participants): 64 (72.7) n (%)
- MADRS total score ≦10 at week 14 ([3]; all randomized participants): 52 (59.1) n (%)
- QIDS-SR change in total score, LS mean change (90% CI) ([3]; all randomized participants (n = 85)): −2.5 (−3.1, −1.8)
- HAM-D17 change in total score, LS mean change (90% CI) ([3]; all randomized participants): −3.9 (−5.0, −2.9)
- MADRS change in total score, LS mean change (90% CI) ([3]; all randomized participants, week 8 to week 14): −4.8 (−6.3, −3.4)
- MADRS items related to appetite, sleep, or thoughts of self-harm ([3]; analysis of MADRS items): no significant worsening
- MADRS items showing improvement ([3]; analysis of MADRS items, all p≦0.08): improvement present in domains of mood, concentration, interest, and motivation
- adjusted effect size of MADRS total scores for LDX vs placebo ([3]; at endpoint): −0.3
- HAM-D17 50% decrease at week 14 ([3]; escitalopram nonremitters): 41 (63.1) n (%)
- HAM-D17 total score ≦10 at week 14 ([3]; escitalopram nonremitters): 21 (32.3) n (%)
- MADRS 50% decrease at week 14 ([3]; escitalopram nonremitters): 43 (66.2) n (%)
- MADRS total score ≦10 at week 14 ([3]; escitalopram nonremitters): 32 (49.2) n (%)
- MDD symptoms vs placebo, clinician-assessed and patient self-reported measures ([3]; escitalopram nonremitters): improved MDD symptoms vs placebo
- QIDS-SR change in total score, LS mean change (90% CI) ([3]; escitalopram nonremitters (n = 63)): −2.4 (−3.1, −1.6)
- proportion achieving MADRS remission (total score ≦10) [3, 7]: 49.2%
- proportion achieving a 25% decrease in MADRS total score [3, 7]: 89.2%
- proportion of participants with a 50% decrease in MADRS total score [3, 7]: 66.2%
- HAM-D17 change in total score, LS mean change (90% CI) ([3]; escitalopram nonremitters): −4.9 (−6.0, −3.9)
- self-assessed MDD symptoms ([3]; escitalopram remitters): improved self-assessed MDD symptoms
- primary or secondary efficacy outcome measures, LDX vs placebo ([3]; escitalopram remitters, augmentation baseline and study endpoint): no significant differences; also recorded: no treatment differences
- all MADRS outcomes, LDX versus placebo ([3]; full analysis set (FAS)): numerically greater improvement
- endpoint LS mean difference between Vyvanse and placebo, total MADRS ([3]; subjects with total MADRS score >10 and <50% improvement in total MADRS score, adjunctive to escitalopram): −3.9
- LS mean (90% CI) change in QIDS-SR total scores at week 14 ([3]; table footnote, printed as escitalopram nonremitters (P = .0852)): For escitalopram nonremitters, LS mean (90% CI) change in QIDS-SR total scores at week 14 were −1.9 (−2.9, −0.9) and −0.4 (−1.4, −0.5) for those taking LDX and placebo, respectively (P = .0852)
- CGI-S: proportion of patients with a response ranging from no illness to mild illness ([3]; week 14): However, CGI-S scores at week 14 showed a numerically greater proporation of patients had a response ranging from no illness, to mild illness, with LDX (88.9%) vs placebo (61.3%)
